Measurements reported in patent publication US8729082B2, “Substituted imidazoquinoxalines” (Bayer Intellectual Property GmbH, priority 2009, dated 2014).
pIC50: −log10 of the molar value.

biological target: T1, human kinase Mps-1 (Homo sapiens, UniProt P33981); test: Mps-1 kinase assay (HTRF); type: biochemical; conditions: lowATP; mean; read-out: Mps1 lowATP mean IC50
T1 construct: N-terminally GST-tagged human full length recombinant Mps-1 kinase; purchased Invitrogen, Karslruhe, Germany PV4071
T1 sequence (P33981 1-857): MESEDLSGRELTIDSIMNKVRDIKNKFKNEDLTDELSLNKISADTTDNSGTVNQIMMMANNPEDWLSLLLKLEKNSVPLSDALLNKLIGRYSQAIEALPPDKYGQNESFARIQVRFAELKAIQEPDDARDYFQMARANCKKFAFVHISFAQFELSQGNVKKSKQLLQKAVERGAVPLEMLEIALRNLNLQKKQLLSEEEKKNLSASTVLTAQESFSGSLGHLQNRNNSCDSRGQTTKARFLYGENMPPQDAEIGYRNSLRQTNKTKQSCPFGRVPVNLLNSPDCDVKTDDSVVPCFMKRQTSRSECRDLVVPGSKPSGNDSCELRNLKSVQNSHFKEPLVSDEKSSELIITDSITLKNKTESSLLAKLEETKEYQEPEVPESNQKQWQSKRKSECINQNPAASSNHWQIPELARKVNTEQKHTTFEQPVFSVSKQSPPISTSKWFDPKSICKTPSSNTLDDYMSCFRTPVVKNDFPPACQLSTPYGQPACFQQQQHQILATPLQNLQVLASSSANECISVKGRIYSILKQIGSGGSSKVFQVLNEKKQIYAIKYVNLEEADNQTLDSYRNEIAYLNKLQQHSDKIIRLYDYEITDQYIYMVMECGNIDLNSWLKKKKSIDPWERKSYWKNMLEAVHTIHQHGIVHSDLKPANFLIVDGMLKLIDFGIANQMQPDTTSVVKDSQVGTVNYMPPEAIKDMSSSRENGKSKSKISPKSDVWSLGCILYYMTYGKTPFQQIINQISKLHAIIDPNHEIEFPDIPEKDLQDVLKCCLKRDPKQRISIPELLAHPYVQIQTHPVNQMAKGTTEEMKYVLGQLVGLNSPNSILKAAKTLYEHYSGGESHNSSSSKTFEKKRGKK
Outline: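 HTRF readout: EDTA-stopped reactions incubated 1 h with europium anti-phospho(Ser/Thr) antibody and streptavidin-XLent, emission ratio 665/620 nm after 350 nm excitation. Kinase step: compound pre-bound 15 min to ~1 nM GST-Mps-1, then 60 min at 22 °C with ATP and biotin-peptide substrate; inhibition scaled between no-inhibitor (0%) and no-enzyme (100%) controls.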

First: CCNc1nc2cc(C)c(C)cc2n2c(-c3ccc(C(=O)NC4CC4)c(Cl)c3)cnc12 [Example 2-185, 2-chloro-N-cyclopropyl-4-[4-(ethylamino)-7,8-dimethylimidazo[1,2-a]quinoxalin-1-yl]benzamide]
Second: CCCCNc1nc2cc(C)c(C)cc2n2c(-c3ccc(C(=O)NC4CC4)c(Cl)c3)cnc12 [Example 2-187, 4-[4-(butylamino)-7,8-dimethylimidazo[1,2-a]quinoxalin-1-yl]-2-chloro-N-cyclopropylbenzamide]
The pIC50 of the first is 0.56 log units lower: 7.01 for the first, 7.57 for the second.

`Cc1cc2nc(NCCCO)c3ncc(-c4ccc(C(=O)NC5CC5)c(Cl)c4)n3c2cc1C` [Example 2-186, 2-chloro-N-cyclopropyl-4-{4-[(3-hydroxypropyl)amino]-7,8-dimethylimidazo[1,2-a]quinoxalin-1-yl}benzamide] and `COCCCNc1nc2cc(C)c(C)cc2n2c(-c3ccc(C(=O)NC4CC4)c(Cl)c3)cnc12` [Example 2-196, 2-chloro-N-cyclopropyl-4-{4-[(3-methoxypropyl)amino]-7,8-dimethylimidazo[1,2-a]quinoxalin-1-yl}benzamide] are within 0.2 log units of each other in pIC50: 6.93 for the first, 6.85 for the second.

Going from `CC(=O)NCCNc1nc2cc(C)c(C)cc2n2c(-c3ccc(C(=O)NC4CC4)c(Cl)c3)cnc12` [Example 2-188, 4-(4-{[2-(acetylamino)ethyl]amino}-7,8-dimethylimidazo[1,2-a]quinoxalin-1-yl)-2-chloro-N-cyclopropylbenzamide] to `Cc1cc2nc(NCCC(N)=O)c3ncc(-c4ccc(C(=O)NC5CC5)c(Cl)c4)n3c2cc1C` [Example 2-195, 4-{4-[(3-amino-3-oxopropyl)amino]-7,8-dimethylimidazo[1,2-a]quinoxalin-1-yl}-2-chloro-N-cyclopropylbenzamide], the pIC50 rises from 6.27 to 6.66 (0.39 log units).

`Cc1cc2nc(NCCCn3ccnc3)c3ncc(-c4ccc(C(=O)NC5CC5)c(Cl)c4)n3c2cc1C` [Example 2-189, 2-chloro-N-cyclopropyl-4-(4-{[3-(1H-imidazol-1-yl)propyl]amino}-7,8-dimethylimidazo[1,2-a]quinoxalin-1-yl)benzamide] and `Cc1cc2nc(NCc3ccn(C)n3)c3ncc(-c4ccc(C(=O)NC5CC5)c(Cl)c4)n3c2cc1C` [Example 2-198, 2-chloro-N-cyclopropyl-4-(7,8-dimethyl-4-{[(1-methyl-1H-pyrazol-3-yl)methyl]amino}imidazo[1,2-a]quinoxalin-1-yl)benzamide] are within 0.2 log units of each other in pIC50: 7.08 for the first, 6.90 for the second.

First: Cc1cc2nc(NCC3CC3)c3ncc(-c4ccc(C(=O)NC5CC5)c(Cl)c4)n3c2cc1C [Example 2-190, 2-chloro-N-cyclopropyl-4-{4-[(cyclopropylmethyl)amino]-7,8-dimethylimidazo[1,2-a]quinoxalin-1-yl}benzamide]
Second: Cc1cc2nc(NCC(C)C)c3ncc(-c4ccc(C(=O)NC5CC5)c(Cl)c4)n3c2cc1C [Example 2-194, 2-chloro-N-cyclopropyl-4-{7,8-dimethyl-4-[(2-methylpropyl)amino]imidazo[1,2-a]quinoxalin-1-yl}benzamide]
The pIC50 of the first is 0.28 log units lower: 7.36 for the first, 7.64 for the second.

Compared with `Cc1cc2nc(NCc3ccccn3)c3ncc(-c4ccc(C(=O)NC5CC5)c(Cl)c4)n3c2cc1C` [Example 2-191, 2-chloro-N-cyclopropyl-4-{7,8-dimethyl-4-[(pyridin-2-ylmethyl)amino]imidazo[1,2-a]quinoxalin-1-yl}benzamide], `Cc1cc2nc(NCc3cccnc3)c3ncc(-c4ccc(C(=O)NC5CC5)c(Cl)c4)n3c2cc1C` [Example 2-192, 2-chloro-N-cyclopropyl-4-{7,8-dimethyl-4-[(pyridin-3-ylmethyl)amino]imidazo[1,2-a]quinoxalin-1-yl}benzamide] is 0.85 log units higher in pIC50: 6.60 for the first, 7.45 for the second.

Compared with `Cc1cc2nc(NCc3ccncc3)c3ncc(-c4ccc(C(=O)NC5CC5)c(Cl)c4)n3c2cc1C` [Example 2-193, 2-chloro-N-cyclopropyl-4-{7,8-dimethyl-4-[(pyridin-4-ylmethyl)amino]imidazo[1,2-a]quinoxalin-1-yl}benzamide], `Cc1cc2nc(NCc3ccnn3C)c3ncc(-c4ccc(C(=O)NC5CC5)c(Cl)c4)n3c2cc1C` [Example 2-199, 2-chloro-N-cyclopropyl-4-(7,8-dimethyl-4-{[(1-methyl-1H-pyrazol-5-yl)methyl]amino}imidazo[1,2-a]quinoxalin-1-yl)benzamide] is 0.30 log units higher in pIC50: 7.29 for the first, 7.59 for the second.

`Cc1cc2nc(NCCCNC(=O)OC(C)(C)C)c3ncc(-c4ccc(C(=O)NC5CC5)c(Cl)c4)n3c2cc1C` [Example 2-197, tert-butyl [3-({1-[3-chloro-4-(cyclopropylcarbamoyl)phenyl]-7,8-dimethylimidazo[1,2-a]quinoxalin-4-yl}amino)propyl]carbamate] and `Cc1cc2nc(NCCS(N)(=O)=O)c3ncc(-c4ccc(C(=O)NC5CC5)c(Cl)c4)n3c2cc1C` [Example 2-201, 2-chloro-N-cyclopropyl-4-{7,8-dimethyl-4-[(2-sulfamoylethyl)amino]imidazo[1,2-a]quinoxalin-1-yl}benzamide] are within 0.2 log units of each other in pIC50: 7.30 for the first, 7.21 for the second.

Compared with `Cc1cc2nc(NCc3cnn(C)c3)c3ncc(-c4ccc(C(=O)NC5CC5)c(Cl)c4)n3c2cc1C` [Example 2-200, 2-chloro-N-cyclopropyl-4-(7,8-dimethyl-4-{[(1-methyl-1H-pyrazol-4-yl)methyl]amino}imidazo[1,2-a]quinoxalin-1-yl)benzamide], `Cc1cc2nc(NCC(O)CO)c3ncc(-c4ccc(C(=O)NC5CC5)c(Cl)c4)n3c2cc1C` (stereo not drawn) [Example 2-202, 2-chloro-N-cyclopropyl-4-{4-[(2,3-dihydroxypropyl)amino]-7,8-dimethylimidazo[1,2-a]quinoxalin-1-yl}benzamide] is 0.69 log units lower in pIC50: 7.17 for the first, 6.48 for the second. The first is the more potent here.

Going from `CCCNc1nc2cc(C#N)ccc2n2c(-c3ccc(C(=O)NC4CC4)cc3)cnc12` [Example 2-203, 4-[7-cyano-4-(propylamino)imidazo[1,2-a]quinoxalin-1-yl]-N-cyclopropylbenzamide] to `N#Cc1ccc2c(c1)nc(NCCO)c1ncc(-c3ccc(C(=O)NC4CC4)cc3)n12` [Example 2-204, 4-{7-cyano-4-[(2-hydroxyethyl)amino]imidazo[1,2-a]quinoxalin-1-yl}-N-cyclopropylbenzamide], the pIC50 falls from 7.96 to 7.11 (0.85 log units).

Compared with `N#Cc1ccc2c(c1)nc(NCCCN1CCOCC1)c1ncc(-c3ccc(C(=O)NC4CC4)cc3)n12` [Example 2-205, 4-(7-cyano-4-{[3-(morpholin-4-yl)propyl]amino}imidazo[1,2-a]quinoxalin-1-yl)-N-cyclopropylbenzamide], `N#Cc1ccc2c(c1)nc(NCCCN1CCCC1=O)c1ncc(-c3ccc(C(=O)NC4CC4)cc3)n12` [Example 2-207, 4-(7-cyano-4-{[3-(2-oxopyrrolidin-1-yl)propyl]amino}imidazo[1,2-a]quinoxalin-1-yl)-N-cyclopropylbenzamide] is 0.33 log units higher in pIC50: 6.38 for the first, 6.71 for the second.

Compared with `N#Cc1ccc2c(c1)nc(NCc1cccc(F)c1)c1ncc(-c3ccc(C(=O)NC4CC4)cc3)n12` [Example 2-206, 4-{7-cyano-4-[(3-fluorobenzyl)amino]imidazo[1,2-a]quinoxalin-1-yl}-N-cyclopropylbenzamide], `COCCNc1nc2cc(C#N)ccc2n2c(-c3ccc(C(=O)NC4CC4)cc3)cnc12` [Example 2-208, 4-{7-cyano-4-[(2-methoxyethyl)amino]imidazo[1,2-a]quinoxalin-1-yl}-N-cyclopropylbenzamide] is 0.20 log units lower in pIC50: 7.30 for the first, 7.10 for the second. The first is the more potent here.
